Our source for the IC50 values is the Kinase Knowledgebase extract (Sharma et al. 2016).

Each structure is given as a SMILES string. pIC50: −log10 of the molar value.

For test [1], the target named is PIK3CA (human) (UniProt P42336). The test is described as follows: Assessment of PIK3CA Kinase Activity.
Test [2] deals with PIK3CB (Human) (UniProt P42338). Description: Assessment of PIK3CB Kinase Activity.
PIK3CB (Human), sequence (P42338 whole entry, looked up): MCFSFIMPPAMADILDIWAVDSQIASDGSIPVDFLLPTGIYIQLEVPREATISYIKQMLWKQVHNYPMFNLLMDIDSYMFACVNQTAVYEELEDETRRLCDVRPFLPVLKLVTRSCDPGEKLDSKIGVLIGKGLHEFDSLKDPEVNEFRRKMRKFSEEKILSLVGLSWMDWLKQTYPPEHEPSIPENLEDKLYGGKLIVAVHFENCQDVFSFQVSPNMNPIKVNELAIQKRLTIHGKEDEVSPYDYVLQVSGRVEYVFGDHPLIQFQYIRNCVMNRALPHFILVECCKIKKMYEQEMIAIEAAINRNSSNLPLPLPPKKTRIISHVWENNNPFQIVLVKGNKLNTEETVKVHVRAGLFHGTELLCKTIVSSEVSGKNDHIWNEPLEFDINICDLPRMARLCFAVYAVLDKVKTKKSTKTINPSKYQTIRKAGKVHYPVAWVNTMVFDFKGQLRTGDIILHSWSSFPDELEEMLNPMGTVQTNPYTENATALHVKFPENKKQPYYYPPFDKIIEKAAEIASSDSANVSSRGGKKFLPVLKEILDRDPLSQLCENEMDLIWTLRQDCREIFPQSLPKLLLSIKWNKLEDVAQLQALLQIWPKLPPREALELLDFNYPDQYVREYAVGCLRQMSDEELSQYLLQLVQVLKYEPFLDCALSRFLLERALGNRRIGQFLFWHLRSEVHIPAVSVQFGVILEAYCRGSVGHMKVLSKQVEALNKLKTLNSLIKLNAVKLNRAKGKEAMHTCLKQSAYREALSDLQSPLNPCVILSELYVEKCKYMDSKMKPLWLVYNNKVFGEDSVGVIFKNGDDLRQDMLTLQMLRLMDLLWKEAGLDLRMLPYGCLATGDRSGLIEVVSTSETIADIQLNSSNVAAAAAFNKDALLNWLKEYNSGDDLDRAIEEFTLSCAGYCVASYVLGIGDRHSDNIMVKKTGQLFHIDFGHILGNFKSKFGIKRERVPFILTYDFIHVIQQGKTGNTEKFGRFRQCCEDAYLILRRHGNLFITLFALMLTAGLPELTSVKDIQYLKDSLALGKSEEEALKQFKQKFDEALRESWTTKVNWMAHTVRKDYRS

PIK3CA (human), sequence (P42336 whole entry, looked up): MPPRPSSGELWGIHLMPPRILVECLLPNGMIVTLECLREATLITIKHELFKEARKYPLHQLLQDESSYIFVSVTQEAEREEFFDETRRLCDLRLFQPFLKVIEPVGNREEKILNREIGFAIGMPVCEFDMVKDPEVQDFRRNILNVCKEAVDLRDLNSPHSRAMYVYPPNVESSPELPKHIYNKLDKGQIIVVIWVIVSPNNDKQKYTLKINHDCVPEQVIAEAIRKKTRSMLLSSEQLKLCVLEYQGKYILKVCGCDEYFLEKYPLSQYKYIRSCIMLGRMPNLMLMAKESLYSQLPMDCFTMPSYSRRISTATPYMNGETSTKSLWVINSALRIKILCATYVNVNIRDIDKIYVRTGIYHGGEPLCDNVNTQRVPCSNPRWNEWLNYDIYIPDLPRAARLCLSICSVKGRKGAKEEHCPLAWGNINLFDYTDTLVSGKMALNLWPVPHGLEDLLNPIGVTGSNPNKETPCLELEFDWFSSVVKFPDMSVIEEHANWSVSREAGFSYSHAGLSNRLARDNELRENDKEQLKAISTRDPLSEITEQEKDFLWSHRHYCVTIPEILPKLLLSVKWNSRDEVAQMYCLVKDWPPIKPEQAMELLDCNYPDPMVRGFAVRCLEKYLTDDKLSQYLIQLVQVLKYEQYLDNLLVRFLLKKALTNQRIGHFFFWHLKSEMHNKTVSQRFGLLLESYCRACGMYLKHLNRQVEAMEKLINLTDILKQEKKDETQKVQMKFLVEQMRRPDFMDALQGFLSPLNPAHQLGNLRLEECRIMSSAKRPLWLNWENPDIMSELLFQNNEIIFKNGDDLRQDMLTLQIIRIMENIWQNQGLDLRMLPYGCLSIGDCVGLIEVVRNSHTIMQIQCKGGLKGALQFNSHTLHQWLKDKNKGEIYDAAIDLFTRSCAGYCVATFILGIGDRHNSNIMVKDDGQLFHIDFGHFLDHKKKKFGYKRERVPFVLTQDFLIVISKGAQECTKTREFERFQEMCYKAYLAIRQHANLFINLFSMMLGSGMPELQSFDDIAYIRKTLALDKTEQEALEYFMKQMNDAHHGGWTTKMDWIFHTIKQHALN

Regarding `COc1c(OCCN2CCCCC2)ccc2c1N=C(NC(=O)c1cccnc1)N1CCN=C21`, the pIC50 in test [1] and in test [2] was above 8.00 each time.

Take `COc1c(OCCCN2C[C@@H](C)O[C@@H](C)C2)ccc2c1N=C(NC(=O)c1ccc(N)nc1)N1CCN=C21`: the pIC50 in test [1] and in test [2] was above 8.00 each time.

For the compound `COc1c(OCCCC2CN(CC3CCC3)CCO2)ccc2c1N=C(NC(=O)c1cccnc1)N1CCN=C21` (centres undefined), the pIC50 in test [1] and in test [2] was above 8.00 in each case.

As for `COc1c(OCCCN2CCOCC2)ccc2c1N=C(NC(=O)c1ccnc(N)c1)N1CCN=C21`, the pIC50 in test [1] and in test [2] was above 8.00 each time.

Turning to `COc1c(OCCCN2CCOCC2)ccc2c1N=C(NC(=O)c1cnc(N)s1)N1CCN=C21`, the pIC50 in test [1] and in test [2] was above 8.00 throughout.

In the case of `COc1c(OCCCN2CCOC(CO)C2)ccc2c1N=C(NC(=O)c1cccnc1)N1CCN=C21` (centres undefined), the pIC50 in test [1] and in test [2] was above 8.00 each time.

For the compound `COc1c(OCCCN2CCOCC2)ccc2c1N=C(NC(=O)c1ccc(NC(=O)NC(C)C)nc1)N1CCN=C21`, the pIC50 in test [1] and in test [2] was above 8.00 throughout.

Take `COc1c(OCCN(C)C)ccc2c1N=C(NC(=O)c1sc(C)nc1C)N1CCN=C21`: the pIC50 in test [1] and in test [2] was above 8.00 in each case.

Consider `COc1c(OCCCN2C[C@@H](C)O[C@@H](C)C2)ccc2c1N=C(NC(=O)c1sc(C)nc1C)N1CCN=C21`, for which the pIC50 in test [1] and in test [2] was above 8.00 throughout.

Regarding `COc1c(OCCCN2CCOCC2)ccc2c1N=C(NC(=O)c1cnc(NCCO)nc1)N1CCN=C21`, the pIC50 in test [1] and in test [2] was above 8.00 throughout.

As for `COc1c(OCCN(C)C)ccc2c1N=C(NC(=O)c1cccnc1)N1CCN=C21`, the pIC50 in test [1] and in test [2] was above 8.00 each time.

As to `COc1c(OCC2CN(C)CCO2)ccc2c1N=C(NC(=O)c1cccnc1)N1CCN=C21` (centres undefined), the pIC50 in test [1] and in test [2] was above 8.00 in each case.

On to `COc1c(OCCCN2CCOCC2)ccc2c1N=C(NC(=O)c1ccc(N)nc1C)N1CCN=C21`, for which the pIC50 in test [1] and in test [2] was above 8.00 in each case.

For `COc1c(OCCCN2C[C@@H](C)O[C@@H](C)C2)ccc2c1N=C(NC(=O)c1cnc(N)nc1)N1CCN=C21`, the pIC50 in test [1] and in test [2] was above 8.00 in each case.

Turning to `COc1c(OCCCN2CCOCC2)ccc2c1N=C(NC(=O)c1cccnc1)N1CCN=C21`, the pIC50 in test [1] and in test [2] was above 8.00 throughout.

For the compound `COc1c(OCCCN2CCOCC2)ccc2c1N=C(NC(=O)c1ccc(N)nc1)N1CCN=C21`, the pIC50 in test [1] and in test [2] was above 8.00 in each case.

As for `COCCN1CCOC(COc2ccc3c(c2OC)N=C(NC(=O)c2cccnc2)N2CCN=C32)C1` (centres undefined), the pIC50 in test [1] and in test [2] was above 8.00 in each case.

As for `COc1c(OCCCN2CCOCC2)ccc2c1N=C(NC(=O)c1sc(C)nc1C)N1CCN=C21`, the pIC50 in test [1] and in test [2] was above 8.00 each time.

With `COCCN1CCOC(CCCOc2ccc3c(c2OC)N=C(NC(=O)c2cccnc2)N2CCN=C32)C1` (centres undefined), the pIC50 in test [1] and in test [2] was above 8.00 throughout.

`COc1c(OCCCN2CCOCC2)ccc2c1N=C(NC(=O)c1ccc(N(C)C)nc1)N1CCN=C21`: the pIC50 in test [1] and in test [2] was above 8.00 each time.

For `COc1c(OCCCN(C)C)ccc2c1N=C(NC(=O)c1ccc[n+]([O-])c1)N1CCN=C21`, the pIC50 (commonly −log10 of the IC50, conventionally taken in molar units) in test [1] was above 8.00.

As for `COc1c(OCCCN2CCOCC2)ccc2c1N=C(NC(=O)c1ccc(NCc3ccco3)nc1)N1CCN=C21`, the pIC50 in test [1] and in test [2] was above 8.00 in each case.

For `CCN(CC)CCOc1ccc2c(c1OC)N=C(NC(=O)c1cccnc1)N1CCN=C21`, the pIC50 in test [1] and in test [2] was above 8.00 in each case.

For the compound `COc1c(OCCCN(C)C)ccc2c1N=C(NC(=O)c1cnc(NCCN(C)C)nc1)N1CCN=C21`, the pIC50 in test [1] and in test [2] was above 8.00 each time.

Regarding `COc1cncc(C(=O)NC2=Nc3c(ccc(OCCCN4CCOCC4)c3OC)C3=NCCN23)c1`, the negative-log IC50 (pIC50) in test [1] and in test [2] was above 8.00 in each case.

In the case of `CCN(CC)CCCOc1ccc2c(c1OC)N=C(NC(=O)c1cccnc1)N1CCN=C21`, the pIC50 in test [1] and in test [2] was above 8.00 throughout.

Take `COCCNc1ccc(C(=O)NC2=Nc3c(ccc(OCCCN4CCOCC4)c3OC)C3=NCCN23)cn1`: the negative-log IC50 (pIC50) in test [1] and in test [2] was above 8.00 each time.

Regarding `CCCc1nc(N)ncc1C(=O)NC1=Nc2c(ccc(OCCCN3CCOCC3)c2OC)C2=NCCN12`, the pIC50 in test [1] and in test [2] was above 8.00 in each case.

For the compound `COc1c(OCCCN(C)C)ccc2c1N=C(NC(=O)c1cnc(N)nc1)N1CCN=C21`, the pIC50 in test [1] and in test [2] was above 8.00 in each case.

As for `COc1c(OCCCN2CCOCC2)ccc2c1N=C(NC(=O)c1ccc(N3CC[C@@H](N)C3)nc1)N1CCN=C21`, the pIC50 in test [1] and in test [2] was above 8.00 in each case.

In the case of `COc1c(OCCCN2CCOCC2)ccc2c1N=C(NC(=O)c1ccc(N3CC[C@H](N)C3)nc1)N1CCN=C21`, the pIC50 in test [1] and in test [2] was above 8.00 each time.

With `COc1c(OCCCN2CCOCC2)ccc2c1N=C(NC(=O)c1cnc(NCCN(C)C)nc1)N1CCN=C21`, the negative logarithm of the IC50 (pIC50) in test [1] and in test [2] was above 8.00 throughout.

`COc1c(OCCCN2C[C@@H](C)O[C@@H](C)C2)ccc2c1N=C(NC(=O)c1ccc(C)nc1)N1CCN=C21`: the pIC50 in test [1] and in test [2] was above 8.00 each time.

As for `COc1c(OCC(CO)CN2CCOCC2)ccc2c1N=C(NC(=O)c1cccnc1)N1CCN=C21` (centres undefined), the pIC50 in test [1] and in test [2] was above 8.00 in each case.

Take `COc1c(OCCN2CCCC2)ccc2c1N=C(NC(=O)c1cccnc1)N1CCN=C21`: the pIC50 in test [1] and in test [2] was above 8.00 each time.

Consider `COc1c(OCCN(C)C)ccc2c1N=C(NC(=O)c1cncnc1)N1CCN=C21`, for which the pIC50 in test [1] and in test [2] was above 8.00 in each case.

For the compound `COc1c(OCCCN2CCOCC2)ccc2c1N=C(NC(=O)c1cnc(N)o1)N1CCN=C21`, the pIC50 in test [1] and in test [2] was above 8.00 throughout.

As for `COc1c(OCC2CNCCO2)ccc2c1N=C(NC(=O)c1cccnc1)N1CCN=C21` (centres undefined), the negative logarithm of the IC50 (pIC50) in test [1] and in test [2] was above 8.00 in each case.

On to `COc1c(OCCCN(C)C)ccc2c1N=C(NC(=O)c1ccc(N)nc1)N1CCN=C21`, for which the pIC50 in test [1] and in test [2] was above 8.00 throughout.

`COCCNc1ncc(C(=O)NC2=Nc3c(ccc(OCCCN4CCOCC4)c3OC)C3=NCCN23)cn1`: the pIC50 in test [1] and in test [2] was above 8.00 each time.

As for `COc1c(OCCCN2C[C@@H](C)O[C@@H](C)C2)ccc2c1N=C(NC(=O)c1cccnc1)N1CCN=C21`, the pIC50 in test [1] and in test [2] was above 8.00 throughout.

For `COc1c(OCCCN)ccc2c1N=C(NC(=O)c1cccnc1)N1CCN=C21`, the pIC50 in test [1] and in test [2] was above 8.00 each time.

Take `CCN1CCOC(CCOc2ccc3c(c2OC)N=C(NC(=O)c2cccnc2)N2CCN=C32)C1` (centres undefined): the pIC50 in test [1] and in test [2] was above 8.00 in each case.

As for `COc1c(OCCCN2C[C@@H](C)O[C@@H](C)C2)ccc2c1N=C(NC(=O)c1cncnc1)N1CCN=C21`, the pIC50 in test [1] and in test [2] was above 8.00 in each case.

Consider `COc1c(OCCCN2CCOCC2)ccc2c1N=C(NC(=O)c1ccc(NC(=O)C3CC3)nc1)N1CCN=C21`, for which the pIC50 in test [1] and in test [2] was above 8.00 each time.

Take `COc1c(OCCCN2CCOCC2)ccc2c1N=C(NC(=O)c1cncn1C)N1CCN=C21`: the pIC50 in test [1] and in test [2] was above 8.00 in each case.

With `COc1c(OCCCN(C)C)ccc2c1N=C(NC(=O)c1cccnc1)N1CCN=C21`, the pIC50 in test [1] and in test [2] was above 8.00 in each case.

Take `COc1c(OCCCN2CCOCC2)ccc2c1N=C(NC(=O)c1ccc(F)nc1)N1CCN=C21`: the pIC50 in test [1] and in test [2] was above 8.00 each time.

Consider `COc1c(OCCCN2CCOCC2)ccc2c1N=C(NC(=O)c1cncnc1)N1CCN=C21`, for which the pIC50 in test [1] and in test [2] was above 8.00 each time.

`COc1c(OCCCN2CCOCC2)ccc2c1N=C(NC(=O)c1cnc(N)nc1C)N1CCN=C21`: the pIC50 in test [1] and in test [2] was above 8.00 throughout.

Take `COc1c(OCCN2CCOCC2)ccc2c1N=C(NC(=O)c1cccnc1)N1CCN=C21`: the pIC50 in test [1] and in test [2] was above 8.00 each time.

On to `COc1c(OCCCN2CCCCC2)ccc2c1N=C(NC(=O)c1cccnc1)N1CCN=C21`, for which the pIC50 in test [1] and in test [2] was above 8.00 throughout.

With `COc1c(OCCCN2CCOCC2)ccc2c1N=C(NC(=O)c1ccc(C)nc1)N1CCN=C21`, the pIC50 in test [1] and in test [2] was above 8.00 throughout.

Regarding `COc1c(OCCCN2C[C@@H](C)O[C@@H](C)C2)ccc2c1N=C(NC(=O)c1ccc(NC(C)=O)nc1)N1CCN=C21`, the pIC50 in test [1] and in test [2] was above 8.00 each time.

Regarding `COc1c(OCCCN2CCOCC2)ccc2c1N=C(NC(=O)c1sc(N)nc1C)N1CCN=C21`, the pIC50 in test [1] and in test [2] was above 8.00 throughout.

For the compound `COc1c(OCCCN2CCOCC2)ccc2c1N=C(NC(=O)c1ccc(NC(=O)C(C)C)nc1)N1CCN=C21`, the pIC50 in test [1] and in test [2] was above 8.00 in each case.

For the compound `COc1c(OCCCN(C)C)ccc2c1N=C(NC(=O)c1cnc(N)s1)N1CCN=C21`, the pIC50 in test [1] and in test [2] was above 8.00 in each case.

Turning to `CNCCCOc1ccc2c(c1OC)N=C(NC(=O)c1cccnc1)N1CCN=C21`, the pIC50 in test [1] and in test [2] was above 8.00 throughout.

For the compound `COc1c(OCCCN2CCOCC2)ccc2c1N=C(NC(=O)c1cnc(N)c(Br)c1)N1CCN=C21`, the pIC50 in test [1] and in test [2] was above 8.00 throughout.

Turning to `CNC(=O)Nc1ccc(C(=O)NC2=Nc3c(ccc(OCCCN4CCOCC4)c3OC)C3=NCCN23)cn1`, the negative logarithm of the IC50 (pIC50) in test [1] and in test [2] was above 8.00 each time.
